Results published in patent publication US11696924B2, “Combination therapy using PDK1 and PI3K inhibitors” (MEMORIAL SLOAN-KETTERING CANCER CENTER, priority 2015, dated 2023).
“Also recorded” adds a separate entry of the source.

Assays:
Type in all cases: cell-based
pAKT (S473, T308) = assay: Western blot of AKT phosphorylation
Description: For western blot analysis proteins were extracted in RIPA buffer supplemented with protease and phosphatase inhibitors (Roche). Protein lysates were separated using SDS-PAGE gels and transferred to a PVDF membrane. Then, membranes were probed using specific antibodies. PDK1, pAKT (S473), pAKT (T308), pS6K (T389), pS6 (S240/4), pS6 (235/6), p4EBP1 (S65), PARP, Actin, pRSK (S227), cleaved Caspase 3, pFOXO1/3 (T24/T32), SGK1, SGK2, SGK3, pNDRG1 (T346), NDRG1, Flag, HA, and phospho-RXRXX(S/T) (SEQ ID NO: 1) were from Cell Signaling Technology (CST).

HCC1954 cells = assay: apoptosis: PARP cleavage and caspase 3/7 activity; details: HCC1954 shPDK1, BYL719 1 μM, long term
Description: For Caspase 3/7 activity, the Caspase-Glo® 3/7 Assay kit from Promega was used following manufacturer's instructions. The caspase inhibitor zVAD-fmk was used to inhibit apoptosis in cells and was also obtained from Promega.
Then, membranes were probed using specific antibodies.

AKT = assay: kinase activity of immunoprecipitated endogenous AKT; details: HCC1954, 4 hr, Crosstide substrate
Description: In vitro kinase activity of endogenous SGK1 and AKT was assayed by measuring [γ-32P] ATP incorporation into Crosstide substrate peptide [[…]] […] SGK1 and AKT were immunoprecipitated from HCC1954 cell line 4 hr after treatment. Immunoprecipitates were washed once with lysis buffer containing 500 mM NaCl, once with lysis buffer, and twice with Buffer A (50 mM Tris pH 7.5, 0.1 mM EGTA). Reactions were carried out in 40 μL total volume containing 0.1 mM [γ-32P] ATP (400-1000 cpm/pmol), 10 mM magnesium acetate, and 30 μM Crosstide peptide. Reactions were terminated by adding 10 μL […] EDTA. 40 μL of the reaction mix was spotted on P81 paper, which was immediately immersed into 50 mM ortophosphoric acid and washed several times. Papers were rinsed in acetone and air dried. Radioactivity was quantified by Cerenkov counting. One unit of enzyme activity was defined as the amount of enzyme that catalyzes incorporation of 1 nmol of [γ-32P] ATP into the substrate over one minute.

FOXO3 = assay: FOXO-dependent transcription (microarray, RT-PCR, immunofluorescence, luciferase reporter, ChIP-qPCR); details: HCC1954 and JIMT1, 1 μM, 4 h, vs DMSO
Description: B) Enrichment plot for the FOXO3 signature in HCC1954 cells. C) Heat map showing changes in previously described FOXO3 targets.
G) Luciferase reporter assay in HCC1954 cells stably transduced with the FOXO consensus motif reporter construct treated as indicated for 12 h (RLU, Relative light units). H) ChIP-qPCR assay of FOXO3A binding at TNFSF10A and IRS2 promoters in HCC1954 cells treated as indicated in F. P values are calculated using Student's t-test. Error bars are ±SEM.
RNA was isolated from cells using the QIAGEN RNeasy kit. For microarray analysis, biotinylated cRNA was prepared according to the standard Illumina protocol. After fragmentation, cRNA was hybridized with Illumina GX HT12 Human Array. Slides were washed and stained in the Illumina instrument following manufactured protocol. Slides were scanned using Illumina Bead Array Reader. Data were analyzed using GenomeStudio software. No normalization and background correction are performed first, then quantile normalization and background correction are done.
For mRNA expression analysis, cDNA was prepared using the Bio-Rad cDNA synthesis kit. cDNA was amplified by quantitative PCR using SYBR Select Master Mix (Applied Biosystems) in the ViiA 7 Real-Time PCR system. All reactions were carried out in triplicate.
Lysed cells were sonicated on ice to yield 200-800 bp DNA fragments. […]

[1] = test system: cap-dependent translation; assay: m7GTP pull down, cap-dependent translation; details: HCC1954 shPDK1, BYL719 1 μM, 4 h
Description: 2 million cells were seeded in 10 cm plates and treated accordingly 12 hr after seeding. Lysates were prepared using m7GTP pull down buffer (50 mM Hepes, pH 7.4, 75 mM NaCl, 10 mM MgCl2, 1 mM DTT, 8 mM EGTA, 10 mM β-glycerophosphate, 0.5 mM Na3VO4, 0.5% Triton X-100) supplemented with protease and phosphatase inhibitors. Lysates were centrifuged at 13000 rpm for 10 min and supernatants were rotated for 2 h at 4° C. with 7-methyl-GTP-Sepharose or control Sepharose beads (Jena Bioscience). Beads were washed three times with m^7GTP pull down buffer, resuspended in Laemmli buffer, and associated proteins were detected by Western blot.

Which results are given for `Cc1nc(NC(=O)N2CCC[C@H]2C(N)=O)sc1-c1ccnc(C(C)(C)C(F)(F)F)c1` [BYL719]?
AKT phosphorylation / activity (pAKT (S473, T308); BYL719-resistant cells (HCC1954, JIMT1), 1 μM, 4 h): reduced AKT phosphorylation (S473 and T308); also recorded: effectively suppressed AKT activity; pAKT (S473) levels fully decreased (pAKT (S473, T308); CAL-148 and CAL-51 cells, 1 μM, 4 h): fully decreases pAKT levels; AKT phosphorylation (pAKT (S473, T308); HCT116 PDPK1+/+ and PDPK1−/− cells): decreases AKT phosphorylation; apoptosis markers in PDK1 knockdown cells (HCC1954 cells): induced PARP cleavage (FIG. 2C) and increased caspase 3/7 activity; endogenous AKT kinase activity (AKT): completely abrogated; changes in gene expression / transcriptomic profile (FOXO3): modest; cap-dependent translation in PDK1 knockdown cells [1]: decreased cap-dependent translation
